{"source": "ChEMBL document CHEMBL5214903", "about": "“Diversity-oriented synthesis as a tool to expand the chemical space of DNA-encoded libraries” (Bioorg Med Chem, 2021)", "key": {"[1]": {"target": "Bromodomain-containing protein 3 (Homo sapiens, UniProt Q15059)", "sequence (Q15059 whole entry, the tested form may be a part)": "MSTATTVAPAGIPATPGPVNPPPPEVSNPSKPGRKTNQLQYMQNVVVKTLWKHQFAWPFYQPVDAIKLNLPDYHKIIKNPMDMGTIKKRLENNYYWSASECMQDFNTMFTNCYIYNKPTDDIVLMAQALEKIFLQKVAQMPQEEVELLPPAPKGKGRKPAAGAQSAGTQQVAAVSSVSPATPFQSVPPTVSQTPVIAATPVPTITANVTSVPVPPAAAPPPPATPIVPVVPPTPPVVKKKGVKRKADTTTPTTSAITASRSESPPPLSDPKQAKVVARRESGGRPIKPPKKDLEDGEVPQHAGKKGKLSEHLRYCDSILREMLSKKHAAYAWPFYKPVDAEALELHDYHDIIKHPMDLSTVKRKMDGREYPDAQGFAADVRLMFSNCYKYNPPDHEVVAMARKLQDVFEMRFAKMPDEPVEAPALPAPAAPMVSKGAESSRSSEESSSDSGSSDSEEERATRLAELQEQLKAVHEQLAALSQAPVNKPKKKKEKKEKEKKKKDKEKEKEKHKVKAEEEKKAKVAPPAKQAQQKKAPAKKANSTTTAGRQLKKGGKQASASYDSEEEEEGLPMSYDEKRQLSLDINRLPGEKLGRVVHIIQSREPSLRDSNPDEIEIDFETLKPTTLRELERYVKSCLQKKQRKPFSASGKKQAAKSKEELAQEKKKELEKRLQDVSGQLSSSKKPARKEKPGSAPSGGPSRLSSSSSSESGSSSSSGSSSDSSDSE", "experiment": "Binding affinity to recombinant human BRD3 bromodomain-1 (44 to 168 residues) expressed in Escherichia coli BL21 (DE3) cells assessed as inhibition constant by fluorescence polarization assay"}, "[2]": {"target": "Histone acetyltransferase p300 (Homo sapiens, UniProt Q09472)", "sequence (Q09472 whole entry)": "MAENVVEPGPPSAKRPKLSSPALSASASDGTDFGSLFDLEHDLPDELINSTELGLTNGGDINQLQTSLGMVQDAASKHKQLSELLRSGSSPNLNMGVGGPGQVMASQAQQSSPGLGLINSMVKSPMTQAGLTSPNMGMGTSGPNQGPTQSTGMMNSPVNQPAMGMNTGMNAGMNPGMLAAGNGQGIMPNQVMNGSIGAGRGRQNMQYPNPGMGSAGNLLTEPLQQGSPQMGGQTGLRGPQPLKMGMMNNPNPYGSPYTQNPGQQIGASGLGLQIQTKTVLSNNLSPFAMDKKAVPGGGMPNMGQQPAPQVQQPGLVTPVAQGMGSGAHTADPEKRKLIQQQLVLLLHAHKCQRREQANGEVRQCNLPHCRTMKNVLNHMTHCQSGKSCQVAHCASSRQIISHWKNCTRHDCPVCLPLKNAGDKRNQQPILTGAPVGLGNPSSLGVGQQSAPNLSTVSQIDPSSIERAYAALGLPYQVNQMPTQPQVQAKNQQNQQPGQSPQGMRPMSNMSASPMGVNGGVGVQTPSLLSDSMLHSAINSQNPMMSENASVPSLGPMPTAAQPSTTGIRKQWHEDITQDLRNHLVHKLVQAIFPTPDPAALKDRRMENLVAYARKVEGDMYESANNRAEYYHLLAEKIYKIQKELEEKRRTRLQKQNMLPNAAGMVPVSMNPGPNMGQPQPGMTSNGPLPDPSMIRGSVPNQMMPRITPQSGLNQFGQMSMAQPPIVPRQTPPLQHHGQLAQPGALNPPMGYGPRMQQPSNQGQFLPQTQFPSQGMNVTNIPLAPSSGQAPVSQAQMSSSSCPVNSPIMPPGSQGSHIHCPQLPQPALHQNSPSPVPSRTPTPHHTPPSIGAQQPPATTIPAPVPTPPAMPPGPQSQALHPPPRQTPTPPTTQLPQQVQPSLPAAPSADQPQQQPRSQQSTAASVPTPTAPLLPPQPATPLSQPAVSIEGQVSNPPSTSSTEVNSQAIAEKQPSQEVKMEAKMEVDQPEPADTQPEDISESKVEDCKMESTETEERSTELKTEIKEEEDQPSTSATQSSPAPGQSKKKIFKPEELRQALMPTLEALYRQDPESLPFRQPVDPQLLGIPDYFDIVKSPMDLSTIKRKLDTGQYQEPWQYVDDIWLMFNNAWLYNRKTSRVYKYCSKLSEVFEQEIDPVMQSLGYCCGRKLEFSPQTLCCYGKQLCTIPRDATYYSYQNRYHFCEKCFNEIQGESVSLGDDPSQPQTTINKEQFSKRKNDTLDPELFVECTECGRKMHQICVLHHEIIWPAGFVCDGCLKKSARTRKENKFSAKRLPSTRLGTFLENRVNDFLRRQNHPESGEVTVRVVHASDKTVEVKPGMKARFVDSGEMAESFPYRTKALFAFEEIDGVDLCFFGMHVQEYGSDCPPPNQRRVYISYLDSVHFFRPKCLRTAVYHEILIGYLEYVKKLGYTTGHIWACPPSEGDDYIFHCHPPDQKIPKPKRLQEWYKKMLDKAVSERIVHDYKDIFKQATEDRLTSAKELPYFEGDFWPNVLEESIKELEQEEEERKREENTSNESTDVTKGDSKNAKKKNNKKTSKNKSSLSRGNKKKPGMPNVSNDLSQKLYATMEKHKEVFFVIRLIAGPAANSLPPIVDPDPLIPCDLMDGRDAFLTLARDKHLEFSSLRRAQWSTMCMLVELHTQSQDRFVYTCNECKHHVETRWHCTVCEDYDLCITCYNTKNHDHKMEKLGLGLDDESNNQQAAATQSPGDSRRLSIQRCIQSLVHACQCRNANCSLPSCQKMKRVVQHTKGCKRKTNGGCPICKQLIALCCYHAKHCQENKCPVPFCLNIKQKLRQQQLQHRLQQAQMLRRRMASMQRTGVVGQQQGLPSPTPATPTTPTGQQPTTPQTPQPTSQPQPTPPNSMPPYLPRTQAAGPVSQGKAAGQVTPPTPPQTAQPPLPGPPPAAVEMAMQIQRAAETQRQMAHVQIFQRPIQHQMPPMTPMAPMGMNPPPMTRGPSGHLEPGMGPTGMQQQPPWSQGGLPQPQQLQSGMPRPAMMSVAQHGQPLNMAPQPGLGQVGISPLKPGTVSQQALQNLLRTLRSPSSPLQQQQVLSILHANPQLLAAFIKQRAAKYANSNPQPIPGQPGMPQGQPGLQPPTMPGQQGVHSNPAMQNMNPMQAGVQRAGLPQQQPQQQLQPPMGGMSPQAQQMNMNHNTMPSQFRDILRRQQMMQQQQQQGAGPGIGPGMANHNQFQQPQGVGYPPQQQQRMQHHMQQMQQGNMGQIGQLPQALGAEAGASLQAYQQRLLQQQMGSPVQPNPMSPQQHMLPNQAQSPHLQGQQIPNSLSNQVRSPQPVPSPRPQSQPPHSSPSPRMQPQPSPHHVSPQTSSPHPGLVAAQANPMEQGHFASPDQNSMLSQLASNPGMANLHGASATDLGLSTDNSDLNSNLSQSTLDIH", "experiment": "Inhibition of p300 (unknown origin) using [3H]-Ac-CoA as substrate preincubated for 15 mins followed by substrate addition and measured after 60 mins by Flashplate assay"}, "[3]": {"target": "E3 ubiquitin-protein ligase Mdm2 (Homo sapiens, UniProt Q00987)", "sequence (Q00987 whole entry)": "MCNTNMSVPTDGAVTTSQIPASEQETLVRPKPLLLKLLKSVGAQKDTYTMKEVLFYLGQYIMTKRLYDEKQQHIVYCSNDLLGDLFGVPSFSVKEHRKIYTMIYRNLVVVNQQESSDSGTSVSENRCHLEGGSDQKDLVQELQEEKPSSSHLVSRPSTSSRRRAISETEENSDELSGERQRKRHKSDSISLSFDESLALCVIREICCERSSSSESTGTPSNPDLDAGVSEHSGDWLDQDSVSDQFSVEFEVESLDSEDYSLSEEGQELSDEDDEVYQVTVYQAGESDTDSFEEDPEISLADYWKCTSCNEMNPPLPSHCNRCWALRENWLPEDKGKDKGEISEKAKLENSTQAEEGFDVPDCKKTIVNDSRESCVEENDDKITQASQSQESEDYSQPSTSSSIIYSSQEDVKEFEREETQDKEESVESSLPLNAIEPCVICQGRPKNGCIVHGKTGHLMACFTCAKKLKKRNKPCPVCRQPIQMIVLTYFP", "experiment": "Binding affinity to MDM2 (unknown origin) assessed as dissociation constant"}, "[4]": {"experiment": "Inhibition of Aurora (unknown origin)", "parameters": "species or system Homo sapiens"}, "[5]": {"target": "Transcriptional enhancer factor TEF-3 (Homo sapiens, UniProt Q15561)", "sequence (Q15561 whole entry)": "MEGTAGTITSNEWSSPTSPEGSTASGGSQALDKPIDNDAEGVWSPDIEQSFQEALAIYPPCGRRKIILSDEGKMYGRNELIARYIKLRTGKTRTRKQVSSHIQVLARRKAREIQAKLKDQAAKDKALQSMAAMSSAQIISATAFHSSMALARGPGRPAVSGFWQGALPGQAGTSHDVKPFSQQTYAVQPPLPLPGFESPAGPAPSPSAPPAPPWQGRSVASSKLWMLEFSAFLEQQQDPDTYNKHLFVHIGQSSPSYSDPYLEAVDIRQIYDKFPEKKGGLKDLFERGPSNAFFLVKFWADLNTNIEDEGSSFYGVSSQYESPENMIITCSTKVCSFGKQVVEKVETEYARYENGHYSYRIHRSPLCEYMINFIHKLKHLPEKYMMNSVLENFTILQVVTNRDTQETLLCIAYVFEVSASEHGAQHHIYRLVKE", "experiment": "Inhibition of YAP binding to human TEAD4 by fluorescence polarization assay"}}, "data": [{"smiles": "COc1cc(/C=C/C(=O)Nc2ccc3c(c2)C2(C(=O)N3)C(C(=O)OC(C)(C)C)CC3CSCN32)cc(OC)c1OC", "note": "(stereo not given)", "values": [{"measurement": "Ki", "setting": "[1]", "result": 0.131, "unit": "µM"}]}, {"smiles": "COC(=O)C1CC2CSCN2C12C(=O)Nc1ccc(NCc3ccc([N+](=O)[O-])cc3OCC(=O)O)cc12", "note": "(stereo not given)", "values": [{"measurement": "IC50", "setting": "[2]", "result": 45, "unit": "µM"}]}, {"smiles": "Cc1ccc(NC(=O)Cn2cc(CN(C(=O)CCC(=O)OC(C)(C)C)C(C(=O)NC3CCCCC3)c3c[nH]c4cc(Cl)ccc34)nn2)c(C)c1", "note": "(stereo not given)", "values": [{"measurement": "Kd", "setting": "[3]", "result": 33, "unit": "µM"}]}, {"smiles": "CC(C)(C)OC(=O)C1CC2CSCN2C12C(=O)Nc1cc(-c3ccc4c(c3)CC(=O)N4)ccc12", "note": "(stereo not given)", "values": [{"measurement": "IC50", "setting": "[4]", "result": 45, "unit": "µM"}]}, {"smiles": "Cc1ccn2cc(Cn3cc(CN(C(=O)CCC(=O)OC(C)(C)C)C(C(=O)NC4C[C@@H]5CC[C@]4(C)C5(C)C)c4c[nH]c5cc(Cl)ccc45)nn3)nc2c1", "note": "(stereo not given in full)", "values": [{"measurement": "IC50", "setting": "[5]", "result": 0.51, "unit": "µM"}]}]}
